# In patent US20050282745A1, “Non-mammalian GnRH analogs and uses thereof in regulation of fertility and pregnancy” (priority 2001, published 2005):
# Non-standard residues stand in square brackets, D forms with d. Residues, ends and D or L forms follow the SMILES beside them. pGlu = O=C1CC[C@@H](C(=O)O)N1; azaGly = NNC(=O)O
# Columns and labels:
# [1] = molecular target: chorionic peptidase-1 (C-ase-1); test: C-ase-1 enzyme activity assay, competition for degradation of GnRH; details: competition for degradation of mammalian GnRH, Example III
# Protocol: (§1) Using the incubation system developed for the C-ase-1 activity, the degradation of each analog was tested. […] These studies were done using the C-ase-1 enzyme activity assay as described previously. […] The product formed was calculated by subtraction, and its inverse plotted against the inverse of the original substrate concentrations to determine the nature of the competition. The Ki was to be determined by plotting the inverse of the product that formed verses the inhibitor used.
# (§2) The concentration of the product of the degraded GnRH was quantified by subtracting the remaining mammalian GnRH from the starting concentrations of mammalian GnRH. […] The Ks for the degradation of mammalian GnRH was calculated from the x axis intercept using Lineweaver-Burke double reciprocal plot of the concentration of the product formed versus the concentration of the substrate used.
# (§3) The reaction was stopped by heating at 85° C. for 10 minutes. The remaining GnRH was determined using a specific radioimmunoassay. The formation of product, i.e., the N-terminal nonapeptide of GnRH, was calculated by subtraction and its inverse was plotted versus the inverse of the initial substrate to determine the Ks of the reaction. […] The relative potency of each analog was compared.
# (§4) Using the incubation system developed for the C-ase-1 activity, the degradation of each analog was studied. […] The inverse of the product was plotted against the inverse of the original substrate concentrations to determine Ks of the competition. The Ki was determined by plotting the inverse of the product formed verses the inhibitor used.
# [2] = test system: chorionic peptidase-1 (C-ase-1)
# Protocol: as §1, §2, §3, §4
# baboon granulosa cells = test: Baboon granulosa cell culture, progesterone release; format: cell-based
# Excerpt: The biopotency of chicken II GnRH analogs (SEQ ID NO: 2) in the regulation of baboon ovarian function was studied. The effect of mammalian and chicken II GnRH analogs (SEQ ID NO: 2) on ovarian progesterone release was studied using granulosa cell cultures. The dose-related action of a stable analog of chicken II GnRH (SEQ ID NO: 2) on progesterone production was defined using baboon granulosa cell cultures. After a two hour basal study period, the medium was supplemented with either Buserilin (SEQ ID NO: 10) (10^−7) or a chicken II GnRH analog (SEQ ID NO: 2) (10^−9, 10^−8, 10^−7, 10^−6 M) leaving four control wells. […] This inhibition was sustained after 48 hours of treatment. […] In addition, the action of the analog on three different stromal and three different epithelial endometrial primary cell lines (after 3-5 passages) has been studied and PGE2 determined as indicated in FIG. 31.
# [3] = test system: baboon uterine tissue GnRH receptor; test: Baboon uterine tissue GnRH receptor binding
# Excerpt: These chicken II GnRH analogs (SEQ ID NO: 2) may have particular applicability for regulation of implantation and in uterine tissue conditions, such as endometriosis, abnormal uterine bleeding, and leiomyomas. Thus, high affinity receptors for chicken II GnRH analogs (SEQ ID NO: 2) have been defined in baboon ovary and uterus tissues.
# human sperm = test: Human sperm motility in vitro; format: cell-based
# Protocol: Normal human sperm ([…]) were obtained with seminal plasma and the motility of the sperm was assessed microscopically. Both the fraction of motile sperm and the forward sperm motion were assessed. These parameters were measured just prior to a 1:5 dilution with phosphate buffered saline containing 0 to 200 nM chicken II GnRH analog (SEQ ID NO: 2). The motility and motion of the sperm were assessed at 2, 30, 60, 90, 120 and 180 minutes after incubation at 37 C. […] By 180 minutes the motility of the control had fallen to that of all the treated sperm.
# [4] = test system: baboon ovarian enzymatic activity
# Protocol: In these studies the enzyme was in the ovarian extract.
# In this assay, following incubation of the enzyme and GnRH, with and without the chosen analog, the reaction was stopped by heating and the remaining GnRH substrate was quantified by radioimmunoassay. The product formed is calculated by subtraction, and its inverse plotted against the inverse of the original substrate concentrations to determine the nature of the competition. The Ki was determined by plotting the inverse of the product formed versus the inhibitor used.
# [5] = test system: human term placental explants; test: Static explant culture, release of hCG, progesterone, PGE2; format: cell-based
# Excerpt: The biological activity of the newly synthesized non-mammalian GnRH analogs was studied using a static implant culture system. This system allows for inexpensive extended activity studies. Mammalian GnRH action on the human placenta release of hCG, progesterone and prostaglandins were defined using this system. Replicate cultures were studied, thus allowing for comparison of different doses of each non-mammalian GnRH analog to mammalian GnRH (SEQ ID NO: 5), as well as direct competition assays. […] These studies were repeated using different human placentas. Siler-Khodr T M, Khodr G S, Valenzuela G, Rhode J 1986 Gonadotropin-releasing hormone effects on placental hormones during gestation: II. Progesterone, estrone, estradiol and estriol. Biol Reprod 34:255-264; Siler-Khodr T M, Khodr G S, Valenzuela G, Rhode J 1986 Gonadotropin-releasing hormone effects on placental hormones during gestation: 1 Alpha-human chorionic gonadotropin, human chorionic gonadotropin and human chorionic somatomammotropin. Biol Reprod 34:245-254; Siler-Khodr T M, Khodr G S, Valenzuela G, Harper J, Rhode J 1986 GnRH effects on placental hormones during gestation. 111 Prostaglandin E, prostaglandin F, and 13, 14-dihydro-15-keto-prostaglandin F. Biol Reprod 35:312-319.
# In these and additional studies, an explant culture system was used to determine the effect of mammalian GnRH (SEQ ID NO: 5), chicken II GnRH (SEQ ID NO: 6), or the D-Arg(6)-chicken II GnRH-aza-Gly(10)-amide analog (SEQ ID NO: 2) on the release of the hCG, progesterone, and prostaglandin E2. Human term placentas were dissected free of membranes, minced into fragments of 5 mm, rinsed in medium, and a total weight of ˜100 mg (20 explants) was placed on a sterile filter paper resting on an organ culture grid such that they touched the surface of the culture medium, but were not immersed in it. The medium contained penicillin, streptomycin, and fungizone at 100 U/mL, 100 μg/mL, and 2.5 μg/mL respectively with and without varying doses of GnRH isoforms or analogs was added to each Petri dish. Triplicate chambers for each media were made and incubated at 37 C in a humidified chamber with an atmosphere of 5% CO2 and 95% air. Spent media were collected and replaced after 2 hours, 24 hours, and 48 hour of culture and stored frozen at −20° C. until assayed for hormones. HCG, progesterone, and PGE2 were measured using specific double antibody procedures as described previously. The chicken II GnRH analog (SEQ ID NO: 2) was studied using four different human term placentas, and the native chicken II GnRH isoform was also studied using one human term placenta. Gibbons J M, Mitnick M, Chieffo V 1975 In vitro biosynthesis, of TSH- and LH-releasing factors by the human placenta. Am J Obstet Gynecol 121:127-131.
compound,measurement,setting,value
N=C(N)NCCC[C@@H](NC(=O)[C@H](Cc1c[nH]cn1)NC(=O)[C@H](CO)NC(=O)[C@H](Cc1c[nH]c2ccccc12)NC(=O)[C@H](Cc1c[nH]cn1)NC(=O)[C@@H]1CCC(=O)N1)C(=O)N[C@@H](Cc1c[nH]c2ccccc12)C(=O)N[C@@H](Cc1ccc(O)cc1)C(=O)N1CCC[C@H]1C(=O)NNC(N)=O [D-Arg(6)-chicken II GnRH-aza-Gly(10)-amide] ([pGlu]HWSH[dR]WYP[azaGly]-NH2),Ki,[1],> 400 nM
same,"degradation by / competition for C-ase-1, in words",[2],essentially not degraded
same,"progesterone release, of untreated controls","baboon granulosa cells; 10^−8M, within 24 hours",31%
same,"effect on progesterone release, in words","baboon granulosa cells; chicken II analog 10^−9 to 10^−6 M, Buserelin 10^−7",dose-related inhibition of progesterone release
same,concentration of maximal inhibition of progesterone release,baboon granulosa cells; within 24 hours,10^−8 M
same,"binding affinity, in words",[3],high binding affinity
same,forward motion of remaining motile sperm,human sperm,maintained a high grade
same,time until inhibition of motility,human sperm; 2 nM,30 min
same,sperm motility,human sperm; 20 to 200 nM,initially inhibited
same,stability compared with mammalian GnRH,[4],more than 50 times
same,Ki,[4]; competition with degradation of mammalian GnRH,≥ 1500 nM
same,progesterone release at higher concentrations,[5],also inhibited
same,effect on hCG at higher concentrations,[5]; 1-9 μM,inhibition of hCG
same,PGE2 release,[5]; 2 and 24 hours,not significantly changed
same,"hCG release after 2, 24 and 48 hours of treatment",[5]; P<0.05,significant dose-related inhibition
same,stimulation of hCG,"[5]; first two hours, lowest concentration 250 nM",as much as a three fold stimulation
same,hCG in presence of exogenous GnRH,"[5]; three placentas, later studies",inhibition of hCG
